Test results: US20260226060A1, “SALTS AND CRYSTALLINE FORMS OF COMPOUND A, METHODS OF PREPARATION, AND USES THEREOF” (SHENZHEN NEWDEL BIOTECH CO., LTD., priority 2023, published 2026)
Where two headings read alike, the source gives them in different places.

Experiments:
[1] = Polymorph screening: trituration for 3 or 7 days at room temperature or 50° C.; assay type: physicochemical
[2] = Short-term physical stability of anhydrous crystal forms (40° C./75% RH, open, 1 day; XRPD); assay type: physicochemical
Excerpt: In addition to the mesylate crystalline form I, the other anhydrous crystalline forms were stable under high humidity conditions.

[3] = Polymorph screening: antisolvent precipitation; assay type: physicochemical; conditions: for Results Wet sample: Vsolvent/Vanti-solvent 1/10
Description: An anti-solvent was gradually added thereto until a solid precipitated or a solvent volume of was added.

[4] = Dynamic vapor sorption (DVS) hygroscopicity; assay type: physicochemical
Description: The water vapor sorption/desorption data of the samples were collected on a dynamic vapor sorption instrument (proUmid GmbH & Co. KG, Germany). Approximately 50-70 mg of sample was placed in a sample pan previously tared and the weight of the sample was measured accurately.

[5] = Solid state stability at 60° C. (closed) and 40° C./75% RH (open), XRPD and HPLC purity; assay type: physicochemical
Description: (closed) and 40° C./75 RH (open) for 14 days, XRPD analysis and purity analysis were performed at various points of time, and solid-state stability was evaluated.
(§1) HPLC analysis was performed by using an Agilent HPLC 1260 series instrument and the HPLC methods used for solubility and stability determinations were shown in Tables 33 and 34, respectively.

[6] = Polymorph screening: evaporating crystallization; assay type: physicochemical; conditions: for Results (quick volatilization −1 h) Wet sample: saturated solution (50° C. to room temperature)
[7] = Polymorph screening: cooling crystallization; assay type: physicochemical; conditions: for solid obtained by cooling crystallization: solution in methanol
Description: It was filtered through a microfilm into clear vials. The solution was divided into two equal parts, one part of filtrate was placed in a refrigerator (5° C.) for rapid cooling, and the other part of filtrate was placed in a heating metal module with a power off and naturally cooled to room temperature.

[8] = Mechanical grinding stability (XRPD); assay type: physicochemical; conditions: ground in a mortar 5 minutes, samples at 2 and 5 minutes
[9] = Solubility analysis in biological solvents (SGF, FaSSIF, FeSSIF) and water, with pH and XRPD of residual solid; assay type: physicochemical; conditions: for Solubility: 37° C., target 5 mg/mL
Description: as §1

physchem = conditions: water, thermodynamic from solid
[10] = Tableting stability (40 Mpa, 1 min; XRPD); assay type: physicochemical
[11] = 60° C./closed and 40° C./75% RH, 7 days

Q: Which results are given for `Cc1c(C#Cc2cnc3ccc(N4CCC(O)CC4)nn23)cccc1C(=O)Nc1cc(Cl)cc(C(F)(F)F)c1` [Fumarate crystalline form I]?
A: new crystalline form by trituration (XRPD) ([1]; 30 mg/mL suspension, room temperature or 50° C., 3 or 7 days): no new fumarate crystalline form was formed; dissociation on trituration ([1]; in alcohol, water, 2-Me-THF, MTBE and acetone): dissociated into free base crystalline form VII; XPRD Results after short-term physical stability [2]: unchanged; new crystalline form by antisolvent precipitation (XRPD) ([3]; from MeOH, THF or DMSO): no new crystalline form was obtained; Results Wet sample ([3]; solvent DMSO (100 mg/mL, 0.2 mL), anti-solvent EA, batch 073-C1): clear solution; Results Wet sample ([3]; solvent DMSO (100 mg/mL, 0.2 mL), anti-solvent IPAC, batch 073-C2): clear solution; Results Wet sample ([3]; solvent DMSO (100 mg/mL, 0.2 mL), anti-solvent MTBE, batch 073-C4): clear solution; Results Wet sample ([3]; solvent MeOH (Saturated, 0.3 mL), anti-solvent MTBE, batch 073-A2): clear solution; Results Wet sample ([3]; solvent THF (25 mg/mL, 0.4 mL), anti-solvent EA, batch 073-B1): clear solution; crystalline form after DVS analysis (XRPD) [4]: remained unchanged; hygroscopicity (DVS) [4]: substantially non-hygroscopic; DVS The weight gains by vapor sorption % ([4]; 80% RH): 0.2, 0.2%; DVS The weight gains by vapor sorption % ([4]; 90% RH): 0.2, 0.2%; DVS The weight gains by vapor sorption % ([4]; 90% RH, listed as fumarate crystalline form I): 0.2/0.2%; hygroscopicity (DVS) ([4]; listed as fumarate crystalline form I): almost non-hygroscopic; hygroscopicity (DVS) ([4]; listed as fumarate form crystalline I): almost non-hygroscopic; Purity in stability evaluation ([5]; 0 d): 99.14 Area %; Solid state stability-14 days ([5]; 60° C./Closed and 40° C./75% RH (Open), 14 days): physically and chemically stable; change in crystalline form, 7 days [5, 11]: No change in crystalline form was observed; chemical purity, 7 days [5, 11]: remained unchanged; solid stability, 7 days [5, 11]: physicochemically stable; Purity in stability evaluation ([5]; 7 d-40° C./75% RH): 99.13 Area %; XRPD in stability evaluation ([5]; 7 d-40° C./75% RH): unchanged; Purity in stability evaluation ([5]; 7 d-60° C./capped): 99.14 Area %; XRPD in stability evaluation ([5]; 7 d-60° C./capped): unchanged; Purity in stability evaluation ([5]; 14 d-40° C./75% RH): 99.13 Area %; XRPD in stability evaluation ([5]; 14 d-40° C./75% RH): unchanged; Purity in stability evaluation ([5]; 14 d-60° C./capped): 99.13 Area %; XRPD in stability evaluation ([5]; 14 d-60° C./capped): unchanged; new crystalline form by evaporating crystallization (XRPD) ([6]; quick and slow evaporation): no new crystalline form was obtained; Results (quick volatilization −1 h) Wet sample ([6]; solvent EtOH, batch 071-A2): amorphous; Results (quick volatilization −1 h) Wet sample ([6]; solvent MeOH, batch 071-A1): free base form 1; new crystalline form by cooling crystallization (XRPD) [7]: no new crystalline form was obtained; solid obtained by cooling crystallization ([7]; rapid cooling (5° C.)): dissociated into free base form 1; solid obtained by cooling crystallization ([7]; slow cooling to room temperature): into free base form 2; crystal form after grinding (XRPD) [8]: not changed; crystallinity after grinding (XRPD) [8]: not obviously reduced; pH in solubility analysis ([9]; FaSSIF (medium pH 6.5), 0.5 h): 6.3; pH in solubility analysis ([9]; FaSSIF (medium pH 6.5), 2 h): 6.2; pH in solubility analysis ([9]; FaSSIF (medium pH 6.5), 24 h): 6.0; XRPD of residual solid in solubility analysis ([9]; FaSSIF, 0.5 h): unchanged; Solubility ([9]; FaSSIF, 0.5 h): 0.011 mg/mL; Solubility ([9]; FaSSIF, 0.5 h, listed as fumarate crystalline form I): 0.011/0.011/ mg/mL; Solubility ([9]; FaSSIF, 2 h): 0.011 mg/mL; Solubility ([9]; FaSSIF, 2 h, listed as fumarate crystalline form I): 0.011/0.011/ mg/mL; XRPD of residual solid in solubility analysis ([9]; FaSSIF, 24 h): unchanged; Solubility ([9]; FaSSIF, 24 h): 0.022 mg/mL; pH in solubility analysis ([9]; FeSSIF (medium pH 5.0), 0.5 h): 5.0; pH in solubility analysis ([9]; FeSSIF (medium pH 5.0), 2 h): 5.0; pH in solubility analysis ([9]; FeSSIF (medium pH 5.0), 24 h): 5.0; Solubility ([9]; FeSSIF, 0.5 h): 0.197 mg/mL; Solubility ([9]; FeSSIF, 0.5 h, listed as fumarate crystalline form I): 0.197 mg/mL; Solubility ([9]; FeSSIF, 2 h): 0.175 mg/mL; Solubility ([9]; FeSSIF, 2 h, listed as fumarate crystalline form I): 0.175 mg/mL; XRPD of residual solid in solubility analysis ([9]; FeSSIF, 24 h): unchanged; Solubility ([9]; FeSSIF, 24 h): 0.530 mg/mL; pH in solubility analysis ([9]; SGF (medium pH 1.2), 0.5 h): 1.3; pH in solubility analysis ([9]; SGF (medium pH 1.2), 2 h): 1.4; pH in solubility analysis ([9]; SGF (medium pH 1.2), 24 h): 1.3; XRPD of residual solid in solubility analysis ([9]; SGF, 0.5 h): unchanged; Solubility ([9]; SGF, 0.5 h): <LOD; Solubility ([9]; SGF, 0.5 h, listed as fumarate crystalline form I): <LOD/<LOD/; Solubility ([9]; SGF, 2 h): <LOD; Solubility ([9]; SGF, 2 h, listed as fumarate crystalline form I): <LOD/<LOD/; XRPD of residual solid in solubility analysis ([9]; SGF, 24 h): unchanged; Solubility ([9]; SGF, 24 h): <LOD; Solid form of residual solids in solubility analysis ([9]; summary over water, SGF, FaSSIF, FeSSIF): remained unchanged; pH in solubility analysis ([9]; water (medium pH 6.6), 0.5 h): 4.6; pH in solubility analysis ([9]; water (medium pH 6.6), 2 h): 4.3; pH in solubility analysis ([9]; water (medium pH 6.6), 24 h): 4.2; XRPD of residual solid in solubility analysis ([9]; water, 0.5 h): unchanged; Solubility ([9]; water, 0.5 h): <LOD; Solubility ([9]; water, 0.5 h, listed as fumarate crystalline form I): <LOD/<LOD/; Solubility ([9]; water, 2 h): <LOD; Solubility ([9]; water, 2 h, listed as fumarate crystalline form I): <LOD/<LOD/; XRPD of residual solid in solubility analysis ([9]; water, 24 h): unchanged; Solubility ([9]; water, 24 h): <LOD; Solubility (physchem; Solubility): < 600 µg/mL; Solubility (physchem; solubility): < 5000 µg/mL; crystalline form after tableting (XRPD) [10]: unchanged; crystallinity after tableting (XRPD) [10]: slightly reduced
